Experimental data published in patent US10995068B2, “Synthetic sphingolipid-like molecules, drugs, methods of their synthesis and methods of treatment” (The Regents of the University of California, priority 2015, dated 2021).

Molecular target: T1, S1P receptor 2 (Homo sapiens, UniProt O95136)
T1 construct: expressed in transfected cells
Assay: S1P receptor activation in CHO cells, S1P2
Format: cell-based
Conditions: CHO cells over-expressing human S1P2
Text: Phosphorylation may have effects on S1P receptor activity that could cause bradycardia. Bradycardia, the dose-limiting toxicity that prevents the use of FTY720 in cancer patients, stems from FTY720-P's actions on S1P receptors 1 and 3. (Camm, J., et al. (2014) Am. Heart J. 168, 632-644; Cohen, J. A., Chun, J. (2011) Ann. Neurol. 69, 759-777; Sanna, M. G., et al. (2004) J. Biol. Chem. 279, 13839-13848; the disclosures of which are incorporated herein by reference). Phosphorylation by sphingosine kinase may make compounds competent to activate S1P receptors. FTY720, for example, when phosphorylated is known to activate S1P receptors 1 and 3. Because compound 5 could be phosphorylated, the activity of compound 5 and its phosphate 5-P (FIG. 28) on S1P receptors was evaluated (FIG. 32).
51P1-5 activation: Chinese hamster ovary (CHO) cells stably over-expressing the different human 51P receptor subtypes are used. S1P1, S1P4 and S1P5 overexpressing CHO cells are cultured in medium containing alpha-MEM supplemented with 10% FBS, 50 μg/ml gentamycin and 0.5 mg/ml G418. S1P2 and S1P3 overexpressing CHO cells are cultured in RPMI containing 10% FBS, 50 μg/ml gentamycin and 0.5 mg/ml G418. Prior to stimulation, cells are rendered serum-free for 24 h. Stimulation is carried out for 10 min in serum-free DMEM containing 0.1 mg/ml of fatty-acid free BSA in the absence or presence of the various compounds or 51P. Protein lysates are prepared using a buffer containing (50 mM Tris pH 7.4, 150 mM NaCl, 10% glycerol, 1% Triton X-100, 2 mM EDTA, 2 mM EGTA, 40 mM β-glycerophosphate, 50 mM sodium fluoride, 10 mM sodium pyrophosphate, 2 mM dithiothreitol, 0.2 mM sodium orthovanadate). Cells are homogenized by one 5 sec burst in a MSE Ultrasonic Disintegrator, centrifuged and taken for protein determination. Equal amounts of protein are separated by SDS-PAGE (10% polyacrylamide gel), transferred to nitrocellulose membranes and subjected to Western blot analysis. Bands were stained using IRDye® secondary antibodies and visualized by the LICOR Odyssey® Fc Imaging system. Antibodies against phospho-Thr202/Tyr204-p42/p44-MAPK and phospho-Ser PKC substrate are from Cell Signaling, Frankfurt am Main, Germany. Polyclonal antisera against total p42 and total p44 were generated and characterized as previously described. (Huwiler, A.; Pfeilschifter, J. Br. J. Pharmacol. 1994, 113, 1455-1463; disclosure of which is incorporated herein by reference).

T1 sequence (O95136 whole entry): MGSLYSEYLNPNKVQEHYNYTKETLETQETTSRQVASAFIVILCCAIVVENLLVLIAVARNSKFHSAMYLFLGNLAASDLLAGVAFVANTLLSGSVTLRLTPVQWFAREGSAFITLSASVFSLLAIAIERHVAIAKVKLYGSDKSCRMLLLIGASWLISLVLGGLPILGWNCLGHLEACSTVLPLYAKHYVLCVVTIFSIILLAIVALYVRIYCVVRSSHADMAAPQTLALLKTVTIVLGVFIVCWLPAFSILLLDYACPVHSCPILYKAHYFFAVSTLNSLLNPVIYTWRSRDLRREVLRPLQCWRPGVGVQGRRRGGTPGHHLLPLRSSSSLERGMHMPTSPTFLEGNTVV

Compound | activation of S1P receptor 2
CCCCCCCCc1ccc([C@H]2CCN[C@@H]2CO)cc1.Cl [Compound 5, (2S,3R)-2-(hydroxymethyl)-3-(4-octylphenyl)Pyrrolidinium chloride] | failed to activate
CCCCCCCCc1ccc([C@@H]2CCN[C@H]2CO)cc1.Cl [Compound 6] | failed to activate
